Patent publication US20040102454A1, “Phenylahistin and the phenylahistin analogs, a new class of anti-tumor compounds” (priority 1998, published 2004)

Legend:
OVCAR-4 = assay: HCC panel assay, sulforhodamine B; type: cell-based; conditions: OVCAR-4, Ovary, (−)-PLH content 24.1%
Procedure: (§1) The antitumor activity of PLH was evaluated by the Human Cancer Cell Line Panel (HCC panel) assay, see Yamori T., Jap. J Cancer Chemother., (1997), 24, 129-35. This HCC panel consists of 38 tumor cell lines including 7 lung cancer, 6 stomach, 6 colon, 5 ovary, 6 central nerve system, 5 breast, 2 kidney and 1 melanoma cell lines. Each tumor cell was seeded in 96-well tissue culture plates and incubated overnight. Various concentrations (5 doses; final 10^−4, 10^−5, 10^−6, 10^−7 and 10^−8 M) of PLH were added, and the cells were incubated for 48 hours. […] All mice were obtained from Japan SLC (Shizuoka, Japan), P388 leukemia cells were obtained from Dainippon Pharmaceuticals Inc. (Osaka, Japan), Lewis Lung Carcinoma from Riken Cell Bank (Tsukuba, Japan), and Colon 26 cells from the National Cancer Center, Japan (Tokyo, Japan).

HBC-4 = assay: HCC panel assay, sulforhodamine B; type: cell-based; conditions: HBC-4, Breast, (−)-PLH content 24.1%
Procedure: as §1

[1] = tested on: yeast strain Saccharomyces cerevisise HF7C; assay: Antimicrobial test, liquid culture medium dilution method; type: cell-based
Procedure: Using colibacillus strain JM109 as a gram-negative bacterium, Bacillus natto as a […] and Aspergillus niger IFO6341 as a mold, the following antimicrobial test was conducted by the filter paper agar flat plate method, wherein 100 μg of specimen was placed on 9 mm filter paper, dried in air, and standard agar culture medium was used for bacteria and potato dextrose agar culture medium for mold. […] An antimicrobial test was further conducted by the liquid culture medium dilution method using the yeast strain Saccharomyces cerevisise HF7C.

Colon 26 cells = assay: In vivo antitumor activity against Colon 26
Procedure: (§2) Male BDF1 mice (6 weeks old) were inoculated subcutaneously in the right flank region with Lewis Lung Carcinoma cells (1×10^5 cells/body) on day 0. PLH [(−)-PLH content; 41.7%] was suspended in 10% ethanol-saline, and was administered daily at a dose of 24 mg/kg, 72 mg/kg, or 240 mg/kg intraperitoneally, as a single injection (0.2 ml/body), from days 1 to 14. Each group consisted of six mice. Mice were weighed, and the length (L) and the width (W) of the tumor were measured three times a week. On day 15, mice were sacrificed, and the tumor was excised and weighed. The estimated tumor weight (ETW) was calculated according to the following formula:
(§3) ETW (mg)=L (mm)×W^2 (mm^2 )/2,
(§4) Suppression rate (%)=[1×(TWt/TWc)]×100,
(§5) Average and standard errors were calculated for each group. Variance analysis was performed by the Bartlett method (significance level: 5%), and if the variance was uniform, a Dunnett's multiple comparison test was performed. However, if the variance was not uniform, rank conversion was performed followed by variance analysis again by the Bartlett method (significance level: 5%). Significance was established at the p<0.05 level.
Male CDFI mice (6 weeks old) were inoculated subcutaneously in the right flank region with Colon 26 cells (1×10^5 cells/body) on day 0. Each group consisted of six mice. Preparation and administration of PLH, and the evaluation of antitumor activity was carried out as described for Lewis Lung Carcinoma, in EXAMPLE 14.

[2] = tested on: Lewis Lung Carcinoma cells; assay: In vivo antitumor activity against Lewis Lung Carcinoma
Procedure: as §2, §3
where L represents the length of the tumor and W represents the width of the tumor. The suppression rate was calculated according to the following formula:
as §4, §5

MCF7 (breast) = assay: Antiproliferative activity, MTT assay (Table 7); type: cell-based; conditions: Homo sapiens, optical purity over 99.8%
Procedure: (§6) In order to examine detailed biological activity, especially antitumor activity of both (+)- and (−)-phenylahistin, resolution of (+)- and (−)-phenylahistin using chiral HPLC was conducted. By repeating chiral separation twice or three times, each enantiomer with an optical purity over 99.8% was obtained, and each enantiomer was recrystallizes from ethanol-hexane mixture.
(§7) Antitumor activity of (+)- and (−)-phenylahistin was examined against seven human cancer cell lines including A431, WiDr, TE-671, Hela, MCF7, A-549 and K562 cells.

A-431 (damal) = assay: Antiproliferative activity, MTT assay (Table 7); type: cell-based; conditions: Homo sapiens, optical purity over 99.8%
Procedure: as §6, §7

WiDr (colon) = assay: Antiproliferative activity, MTT assay (Table 7); type: cell-based; conditions: Homo sapiens, optical purity over 99.8%
Procedure: as §6, §7

A549 (lung) = assay: Antiproliferative activity, MTT assay (Table 7); type: cell-based; conditions: Homo sapiens, optical purity over 99.8%
Procedure: as §6, §7

K562 (leukemia) = assay: Antiproliferative activity, MTT assay (Table 7); type: cell-based; conditions: Homo sapiens, optical purity over 99.8%
Procedure: as §6, §7

Hela (ovary) = assay: Antiproliferative activity, MTT assay (Table 7); type: cell-based; conditions: Homo sapiens, optical purity over 99.8%
Procedure: as §6, §7

C. albicans 90028 = assay: Antifungal susceptibility testing, broth dilution (NCCLS M38-A); type: cell-based, Candida albicans; conditions: Candida albicans; C. albicans 90028; 80% reduction in turbidity; read-out: MIC
Procedure: (§8) Antifungal susceptibility testing was accomplished according to the methods outlined in the National Committee for Clinical Laboratory Standards, M38-A “Reference Method for Broth Dilution Antifungal Susceptibility Testing of Conidium-Forming Filamentous Fungi; Approved Standard.” This includes testing in RPMI-1640 with glutamine and without bicarbonate, an inoculum size of 0.4-5×10^4, and incubation at 30 or 35° C. for 48 hours. […] Drug concentrations were 0.03-16 μg/ml for the investigational compounds, 0.015-8 μg/ml for itraconazole and griseofulvin.
(§9) The minimum lethal concentration (MLC) was determined by plating […] from the MIC concentration and each concentration above the MIC. […] When a MIC was obtained, a minimum fungicidal concentration (MFC) was determined to assess the fungistatic/fungicidal nature of the compound. […] The compound is scored as fungistatic if the cells are able to resume growth and fungicidal if no regrowth is possible because the compound had killed the organisms.

C. albicans 10231 = assay: as above; type: cell-based, Candida albicans; conditions: Candida albicans; C. albicans 10231; 80% reduction in turbidity; read-out: MIC
Procedure: as §8, §9

[3] = calculated from (−)-PLH content 41.7%

C=CC(C)(C)c1[nH]cnc1/C=C1\NC(=O)[C@H](Cc2ccccc2)NC1=O (racemic) [PLH, phenylahistin]
IC50 (OVCAR-4; Homo sapiens, read-out: GL50 (the source's name)): 40000 nM | CC50 (OVCAR-4; Homo sapiens, read-out: LC50 (the source's name)): > 100000 nM | TGI (OVCAR-4): >100000 nM | TGI (HBC-4): >100000 nM | IC50 (HBC-4; Homo sapiens, HBC4, read-out: GL50 (the source's name)): 460 nM | CC50 (HBC-4; Homo sapiens, HBC4, read-out: LC50 (the source's name)): > 100000 nM | antimicrobial activity [1]: no antimicrobial activity | rate of suppression (excised tumor weight) (Colon 26 cells; 24 mg/kg/day): 4.0% | weight of the excised tumor on the fifteenth day (Colon 26 cells; 24 mg/kg/day): 1,113 mg | body weight (Colon 26 cells; 24 mg/kg/day and 72 mg/kg/day): No marked changes in the weight | increments of ETW (Colon 26 cells; 24 mg/kg/day and 72 mg/kg/day): slightly lower than those of the control group | rate of suppression (excised tumor weight) (Colon 26 cells; 72 mg/kg/day): 27.3% | weight of the excised tumor on the fifteenth day (Colon 26 cells; 72 mg/kg/day): 843 mg | body weight (Colon 26 cells; 240 mg/kg/day): lower than that of the control group from day 3 | mice died (Colon 26 cells; 240 mg/kg/day): one mouse died on day 12, two died on day 13 and one died on day 14 | rate of suppression (excised tumor weight) (Colon 26 cells; 240 mg/kg/day): 81.8% | weight of the excised tumor on the fifteenth day (Colon 26 cells; 240 mg/kg/day): 211 mg | ETW (Colon 26 cells; 240 mg/kg/day, day 7): 14 mg | suppression rate (ETW) (Colon 26 cells; 240 mg/kg/day, day 10): 64.4% | suppression rate (ETW) (Colon 26 cells; 240 mg/kg/day, day 13): 78.8% | ETW (Colon 26 cells; 240 mg/kg/day, day 15): 254 mg | suppression rate (ETW) (Colon 26 cells; 240 mg/kg/day, day 15): 85.4% | 95% confidence limit of ED50 (Colon 26 cells; PLH with (−)-PLH content 41.7%): 29.0˜397.7 mg/kg/day | ED50 (Colon 26 cells; PLH with (−)-PLH content 41.7%): 107.3 mg/kg/day | mice died (Colon 26 cells; mouse, in vivo): No mice died | rate of suppression (excised tumor weight) ([2]; 24 mg/kg/day): 9.9% | weight of the excised tumor on the fifteenth day ([2]; 24 mg/kg/day): 2,941 mg | estimated tumor weight (ETW) ([2]; 24 mg/kg/day, day 7): 86 mg | estimated tumor weight (ETW) ([2]; 24 mg/kg/day, day 15): 2,244 mg | rate of suppression (excised tumor weight) ([2]; 72 mg/kg/day): 27.1% | weight of the excised tumor on the fifteenth day ([2]; 72 mg/kg/day): 2,380 mg | estimated tumor weight (ETW) ([2]; 72 mg/kg/day, day 7): 34 mg | estimated tumor weight (ETW) ([2]; 72 mg/kg/day, day 15): 2,142 mg | mice died ([2]; 72 mg/kg/day, on day 11): 1 mouse | body weight ([2]; 240 mg/kg/day): markedly lower than control values after day 3, and significantly lower on day 6 | rate of suppression (excised tumor weight) ([2]; 240 mg/kg/day): 81.0% | weight of the excised tumor on the fifteenth day ([2]; 240 mg/kg/day): 619 mg | estimated tumor weight (ETW) ([2]; 240 mg/kg/day, day 7): 34 mg | suppression of the ETW ([2]; 240 mg/kg/day, day 10): 81.8% | suppression of the ETW ([2]; 240 mg/kg/day, day 13): 82.3% | estimated tumor weight (ETW) ([2]; 240 mg/kg/day, day 15): 617 mg | suppression of the ETW ([2]; 240 mg/kg/day, day 15): 73.2% | mice died ([2]; 240 mg/kg/day, on day 13): 1 mouse | body weight ([2]; 24 and 72 mg/kg/day): little change in body weight | 95% confidence limit of ED50 ([2]; PLH with (−)-PLH content 41.7%): 22.0˜504.1 mg/kg/day | ED50 ([2]; linear regression of suppression rate, PLH with (−)-PLH content 41.7%): 105.3 mg/kg/day | mice died ([2]; mouse, in vivo): None

C=CC(C)(C)c1[nH]cnc1/C=C1\NC(=O)[C@H](Cc2ccccc2)NC1=O [(−)-phenylahistin]
IC50 (MCF7 (breast)): 330 nM | IC50 (A-431 (damal)): 220 nM | IC50 (WiDr (colon)): 180 nM | IC50 (A549 (lung)): 300 nM | IC50 (K562 (leukemia)): 190 nM | IC50 (Hela (ovary)): 200 nM | MIC (C. albicans 90028): > 70 µg/mL | MIC (C. albicans 10231): > 70 µg/mL | 95% confidence limit of ED50, as (−)-PLH (Colon 26 cells; [3]): 12.1˜165.8 mg/kg/day | ED50, calculated dose of (−)-PLH (Colon 26 cells; [3]): 44.7 mg/kg/day | 95% confidence limit of ED50, as (−)-PLH [2, 3]: 9.2˜210.2 mg/kg/day | ED50, calculated dose of (−)-PLH [2, 3]: 43.9 mg/kg/day
